Key:
CD8 T cells = test: Reactivity of isolated CFSE-labeled CD8 T cells to TCR stimulation (anti-CD3/anti-CD28): cytokines, proliferation, CD25; type: cell-based, human; conditions: for CD25 expression [% positive cells] Average / Cell Proliferation [Cell divisions/cell] Average / IFN-gamma production [ng/ml] Average / IL-2 production [ng/ml] Average / TNF-alpha production [ng/ml] Average: anti-CD3/anti-CD28
Method: (§1) • Buffy coat content was transferred to sterile plastic bottle and filled up to 480 ml with PBS, and distributed equally to 16×50 ml tubes (30 ml/tube) • Underlayed with ˜11 ml Lymphoprep and centrifuged 20 min (2200 rpm) • The interphase containing lymphocytes was taken off with transfer pipette, cells were washed twice with PBS and pooled to one tube to determine cell count (Coulter Diff ACT) Isolation of Immune Cell Subfractions from PBMCs by MACS • PBMCs were resuspended in MACS buffer (80 μl MACS-buffer/10^7 cells) and cells were isolated with Auto-MACS device using respective kits following manufacturer's recommendations TCR Stimulation and Measurement of T Cell Activation
(§2) Isolated T cells were plated in Xvivo medium at 1.5*10 ^5 cells per in 96 well culture plates and TCR-stimulated with anti-CD3/28 mAbs in the presence of compound as indicated. Cytokine production was determined at 24 h or 48 h following TCR stimulation in cell culture supernatants using commercially available ELISA kits (BD and eBioscience) as recommended by the manufacturer. T cell proliferation and CD25 expression (CD25-PC5 reagent purchased from Beckman Coulter) was determined by flow cytometry (Beckman-Coulter FC500) and analysed with Kaluza Software. For measurement of CD69 expression, isolated CD4 and CD8 T cells were plated in Xvivo medium at […] per in 96 well culture plates and TCR-stimulated with anti-CD3/28 mAbs in the presence of compound. CD69 expression was determined at 24 h following TCR stimulation by flow cytometry (CD4eF450, CD8APCeF780 and CD69-PC7 reagent purchased from eBioscience) and analysed with Kaluza Software.
Isolated CD8 T cells were CFSE-labeled and stimulated with anti-CD3 and anti-CD28 antibodies.

CD4 T cells = test: TCR-mediated activation of isolated CFSE-labeled CD4 T cells (anti-CD3/anti-CD28): cytokines, proliferation, CD25; type: cell-based, human; conditions: for CD25 expression [% positive cells] Average / Cell Proliferation [Cell divisions/cell] Average / IFN-gamma production [ng/ml] Average / IL-2 production [ng/ml] Average / TNF-alpha production [ng/ml] Average: anti-CD3/anti-CD28
Method: as §1, §2
Isolated CD4 T cells were CFSE-labeled and stimulated with anti-CD3 and anti-CD28 antibodies.

SMILES: CCCCNC(=O)c1ccc2c(c1)N(Cc1ccc(OC(F)(F)F)cc1)C(=O)[C@@H](N)CS2(=O)=O.Cl [Example 67, (3R)-3-amino-N-butyl-1,1,4-trioxo-5-{[4-(trifluoromethoxy)phenyl]methyl}-2,3,4,5-tetrahydro-1λ^6,5-benzothiazepine-7-carboxamide hydrochloride]
- CD25 expression [% positive cells] Average (CD8 T cells; 0.05 μM): 61.07 % positive cells
- Cell Proliferation [Cell divisions/cell] Average (CD8 T cells; 0.05 μM): 1.57 Cell divisions/cell
- IFN-gamma production [ng/ml] Average (CD8 T cells; 0.05 μM): 0.14 ng/mL
- IL-2 production [ng/ml] Average (CD8 T cells; 0.05 μM): 1.17 ng/mL
- TNF-alpha production [ng/ml] Average (CD8 T cells; 0.05 μM): 1.09 ng/mL
- CD25 expression [% positive cells] Average (CD8 T cells; 0.1 μM): 64.24 % positive cells
- Cell Proliferation [Cell divisions/cell] Average (CD8 T cells; 0.1 μM): 1.72 Cell divisions/cell
- IFN-gamma production [ng/ml] Average (CD8 T cells; 0.1 μM): 0.22 ng/mL
- IL-2 production [ng/ml] Average (CD8 T cells; 0.1 μM): 2.32 ng/mL
- TNF-alpha production [ng/ml] Average (CD8 T cells; 0.1 μM): 1.55 ng/mL
- CD25 expression [% positive cells] Average (CD8 T cells; 0.25 μM): 68.81 % positive cells
- Cell Proliferation [Cell divisions/cell] Average (CD8 T cells; 0.25 μM): 1.84 Cell divisions/cell
- IFN-gamma production [ng/ml] Average (CD8 T cells; 0.25 μM): 0.31 ng/mL
- IL-2 production [ng/ml] Average (CD8 T cells; 0.25 μM): 4.01 ng/mL
- TNF-alpha production [ng/ml] Average (CD8 T cells; 0.25 μM): 2.16 ng/mL
- CD25 expression [% positive cells] Average (CD8 T cells; 0.5 μM): 67.89 % positive cells
- Cell Proliferation [Cell divisions/cell] Average (CD8 T cells; 0.5 μM): 1.88 Cell divisions/cell
- IFN-gamma production [ng/ml] Average (CD8 T cells; 0.5 μM): 0.43 ng/mL
- IL-2 production [ng/ml] Average (CD8 T cells; 0.5 μM): 7.64 ng/mL
- TNF-alpha production [ng/ml] Average (CD8 T cells; 0.5 μM): 3.13 ng/mL
- CD25 expression [% positive cells] Average (CD8 T cells; 1 μM): 71.00 % positive cells
- Cell Proliferation [Cell divisions/cell] Average (CD8 T cells; 1 μM): 1.94 Cell divisions/cell
- IFN-gamma production [ng/ml] Average (CD8 T cells; 1 μM): 0.61 ng/mL
- IL-2 production [ng/ml] Average (CD8 T cells; 1 μM): 11.30 ng/mL
- TNF-alpha production [ng/ml] Average (CD8 T cells; 1 μM): 4.04 ng/mL
- CD25 expression [% positive cells] Average (CD8 T cells; 2.5 μM): 71.35 % positive cells
- Cell Proliferation [Cell divisions/cell] Average (CD8 T cells; 2.5 μM): 1.93 Cell divisions/cell
- IFN-gamma production [ng/ml] Average (CD8 T cells; 2.5 μM): 0.79 ng/mL
- IL-2 production [ng/ml] Average (CD8 T cells; 2.5 μM): 16.77 ng/mL
- TNF-alpha production [ng/ml] Average (CD8 T cells; 2.5 μM): 5.37 ng/mL
- CD25 expression [% positive cells] Average (CD8 T cells; 5 μM): 71.76 % positive cells
- Cell Proliferation [Cell divisions/cell] Average (CD8 T cells; 5 μM): 1.91 Cell divisions/cell
- IFN-gamma production [ng/ml] Average (CD8 T cells; 5 μM): 0.91 ng/mL
- IL-2 production [ng/ml] Average (CD8 T cells; 5 μM): 17.30 ng/mL
- TNF-alpha production [ng/ml] Average (CD8 T cells; 5 μM): 6.68 ng/mL
- CD25 expression [% positive cells] Average (CD8 T cells; 10 μM): 71.90 % positive cells
- Cell Proliferation [Cell divisions/cell] Average (CD8 T cells; 10 μM): 1.83 Cell divisions/cell
- IFN-gamma production [ng/ml] Average (CD8 T cells; 10 μM): 1.15 ng/mL
- IL-2 production [ng/ml] Average (CD8 T cells; 10 μM): 19.63 ng/mL
- TNF-alpha production [ng/ml] Average (CD8 T cells; 10 μM): 7.50 ng/mL
- CD25 expression [% positive cells] Average (CD8 T cells; 20 μM): 69.70 % positive cells
- Cell Proliferation [Cell divisions/cell] Average (CD8 T cells; 20 μM): 1.68 Cell divisions/cell
- IFN-gamma production [ng/ml] Average (CD8 T cells; 20 μM): 1.32 ng/mL
- IL-2 production [ng/ml] Average (CD8 T cells; 20 μM): 19.92 ng/mL
- TNF-alpha production [ng/ml] Average (CD8 T cells; 20 μM): 7.13 ng/mL
- production of IL-2, IFN-gamma and TNF-alpha, CD25 expression and T cell proliferation (CD8 T cells; anti-CD3 and anti-CD28): strongly enhanced
- CD25 expression [% positive cells] Average (CD4 T cells; 0.05 μM): 47.88 % positive cells
- Cell Proliferation [Cell divisions/cell] Average (CD4 T cells; 0.05 μM): 0.49 Cell divisions/cell
- IFN-gamma production [ng/ml] Average (CD4 T cells; 0.05 μM): 0.06 ng/mL
- IL-2 production [ng/ml] Average (CD4 T cells; 0.05 μM): 0.13 ng/mL
- TNF-alpha production [ng/ml] Average (CD4 T cells; 0.05 μM): 0.26 ng/mL
- CD25 expression [% positive cells] Average (CD4 T cells; 0.1 μM): 50.80 % positive cells
- Cell Proliferation [Cell divisions/cell] Average (CD4 T cells; 0.1 μM): 0.58 Cell divisions/cell
- IFN-gamma production [ng/ml] Average (CD4 T cells; 0.1 μM): 0.10 ng/mL
- IL-2 production [ng/ml] Average (CD4 T cells; 0.1 μM): 0.21 ng/mL
- TNF-alpha production [ng/ml] Average (CD4 T cells; 0.1 μM): 0.42 ng/mL
- CD25 expression [% positive cells] Average (CD4 T cells; 0.25 μM): 59.10 % positive cells
- Cell Proliferation [Cell divisions/cell] Average (CD4 T cells; 0.25 μM): 0.84 Cell divisions/cell
- IFN-gamma production [ng/ml] Average (CD4 T cells; 0.25 μM): 0.23 ng/mL
- IL-2 production [ng/ml] Average (CD4 T cells; 0.25 μM): 0.56 ng/mL
- TNF-alpha production [ng/ml] Average (CD4 T cells; 0.25 μM): 0.71 ng/mL
- CD25 expression [% positive cells] Average (CD4 T cells; 0.5 μM): 69.50 % positive cells
- Cell Proliferation [Cell divisions/cell] Average (CD4 T cells; 0.5 μM): 1.03 Cell divisions/cell
- IFN-gamma production [ng/ml] Average (CD4 T cells; 0.5 μM): 0.40 ng/mL
- IL-2 production [ng/ml] Average (CD4 T cells; 0.5 μM): 1.00 ng/mL
- TNF-alpha production [ng/ml] Average (CD4 T cells; 0.5 μM): 1.12 ng/mL
- CD25 expression [% positive cells] Average (CD4 T cells; 1 μM): 79.50 % positive cells
- Cell Proliferation [Cell divisions/cell] Average (CD4 T cells; 1 μM): 1.20 Cell divisions/cell
- IFN-gamma production [ng/ml] Average (CD4 T cells; 1 μM): 0.64 ng/mL
- IL-2 production [ng/ml] Average (CD4 T cells; 1 μM): 2.50 ng/mL
- TNF-alpha production [ng/ml] Average (CD4 T cells; 1 μM): 1.65 ng/mL
- CD25 expression [% positive cells] Average (CD4 T cells; 2.5 μM): 77.71 % positive cells
- Cell Proliferation [Cell divisions/cell] Average (CD4 T cells; 2.5 μM): 1.35 Cell divisions/cell
- IFN-gamma production [ng/ml] Average (CD4 T cells; 2.5 μM): 1.46 ng/mL
- IL-2 production [ng/ml] Average (CD4 T cells; 2.5 μM): 7.48 ng/mL
- TNF-alpha production [ng/ml] Average (CD4 T cells; 2.5 μM): 4.11 ng/mL
- CD25 expression [% positive cells] Average (CD4 T cells; 5 μM): 79.53 % positive cells
- Cell Proliferation [Cell divisions/cell] Average (CD4 T cells; 5 μM): 1.40 Cell divisions/cell
- IFN-gamma production [ng/ml] Average (CD4 T cells; 5 μM): 2.22 ng/mL
- IL-2 production [ng/ml] Average (CD4 T cells; 5 μM): 11.11 ng/mL
- TNF-alpha production [ng/ml] Average (CD4 T cells; 5 μM): 5.47 ng/mL
- CD25 expression [% positive cells] Average (CD4 T cells; 10 μM): 79.64 % positive cells
- Cell Proliferation [Cell divisions/cell] Average (CD4 T cells; 10 μM): 1.38 Cell divisions/cell
- IFN-gamma production [ng/ml] Average (CD4 T cells; 10 μM): 2.81 ng/mL
- IL-2 production [ng/ml] Average (CD4 T cells; 10 μM): 13.62 ng/mL
- TNF-alpha production [ng/ml] Average (CD4 T cells; 10 μM): 7.19 ng/mL
- CD25 expression [% positive cells] Average (CD4 T cells; 20 μM): 75.14 % positive cells
- Cell Proliferation [Cell divisions/cell] Average (CD4 T cells; 20 μM): 1.33 Cell divisions/cell
- IFN-gamma production [ng/ml] Average (CD4 T cells; 20 μM): 3.29 ng/mL
- IL-2 production [ng/ml] Average (CD4 T cells; 20 μM): 15.11 ng/mL
- TNF-alpha production [ng/ml] Average (CD4 T cells; 20 μM): 9.31 ng/mL
- T cell proliferation and expression of the surface activation marker CD25 (CD4 T cells; anti-CD3 and anti-CD28): enhanced
- production of key cytokines (IL-2, IFN-gamma, TNF-alpha) (CD4 T cells; anti-CD3 and anti-CD28): strongly enhanced

— US10472341B2, “Bicyclic tetrahydrothiazepine derivatives useful for the treatment of neoplastic and/or infectious diseases” (APEIRON BIOLOGICS AG, priority 2015, dated 2019)
